Assay results from patent US4320117A, “Polypeptide” (Imperial Chemical Industries Limited, priority 1976, dated 1982).
Square brackets hold non-standard residues; d marks the D form. Peptide text beside a SMILES is read from it.

How the values were obtained:
[1] = tested on: mouse hot-plate test (thermal stimulus, 56° C.); assay: mouse hot-plate test; type: in vivo, mice; conditions: for mean increase in reaction time: female mice, hot plate at 56° C.
Experimental: As noted above, the compound of the formula I has analgesic activity in warm-blooded animals. […] This test is carried out as follows. Groups of three female mice each weighing 22 to 25g. are used to test each compound. Each mouse is placed on a heated thermostatically-controlled copper surface at 56° C., and the time taken to react to the thermal stimulus (for example by licking its hind paws) is recorded. Normal reaction times are in the range of 3 to 5 seconds.
Each of the three mice is then dosed intravenously with 100 mg./kg. of a solution of the test compound. At 5, 10 and 30 minutes after dosing, each mouse is again placed on the hot plate and its reaction time determined. […] In this circumstance the compound is regarded as having maximum activity at this dose.
A compound producing a mean increase in reaction time of at least three seconds is regarded as active. An active compound is then retested at lower doses.

cat = conditions: injected directly into the 3rd ventricle of the cat; cited from earlier work

Compound: CC[C@H](C)[C@H](NC(=O)[C@H](C)NC(=O)[C@H](CC(N)=O)NC(=O)[C@H](CCCCN)NC(=O)[C@H](Cc1ccccc1)NC(=O)[C@H](CC(C)C)NC(=O)[C@@H](NC(=O)[C@@H](NC(=O)[C@H](CC(C)C)NC(=O)[C@@H]1CCCN1C(=O)[C@@H](NC(=O)[C@H](CCC(N)=O)NC(=O)[C@H](CO)NC(=O)[C@H](CCCCN)NC(=O)[C@H](CCC(=O)O)NC(=O)[C@H](CO)NC(=O)[C@@H](NC(=O)[C@H](CC(C)C)NC(=O)[C@H](Cc1ccccc1)NC(=O)CNC(=O)[C@@H](C)NC(=O)[C@@H](N)Cc1ccc(O)cc1)[C@@H](C)O)[C@@H](C)O)C(C)C)[C@@H](C)O)C(=O)N[C@H](C(=O)N[C@@H](CCCCN)C(=O)N[C@@H](CC(N)=O)C(=O)N[C@@H](C)C(=O)N[C@@H](Cc1c[nH]cn1)C(=O)N[C@@H](CCCCN)C(=O)N[C@@H](CCCCN)C(=O)NCC(=O)N[C@@H](CCC(N)=O)C(=O)O)C(C)C [Example] (H-Y[dA]GFLTSEKSQTPLVTLFKNAIVKNAHKKGQ-OH)
- mean increase in reaction time ([1]; intravenous dose of 100 mg./kg.): 15 s
- mean increase in reaction time ([1]; intravenous, 25 mg./kg.): 6 s
- duration of analgesic effect ([1]; mice, intravenous, 100 mg./kg.): at least 3 hours
- signs of toxicity ([1]; mice, intravenous, 100 mg./kg.): no obvious signs of toxicity

Compound: β-endorphin: residues 61-91 of the naturally-occurring lipolytic polypeptide hormone lipotropin (C-fragment of lipotropin) (YGGFMTSEKSQTPLVTLFKNAIIKNAYKKGE; Beta-endorphin; UniProt P01189 237-267, looked up)
- analgesic properties (cat): possesses analgesic properties
